Data as given in PMC11306077, “Diterpenoids target SARS-CoV-2 RdRp from the roots of Euphorbia fischeriana Steud” (Frontiers in Plant Science, 2024).
pKd: −log10 of the molar value.

Target: T1, SARS-CoV-2 RdRp (RNA-dependent RNA polymerase, NSP12) (Severe acute respiratory syndrome coronavirus 2, UniProt P0DTD1)
T1 construct: gene rep
Assay: microscale thermophoresis (MST)
Type: binding

## C[C@H]1C(=O)CC[C@]2(C)[C@@H]1CC[C@@]13CC[C@@H]([C@@H](O)[C@H]12)[C@]1(COC(C)(C)O1)C3 [compound 1, (4R,5S,8S,9S,10R,11S,12S,16S)-ent-11α-hydroxy-16α,17-acetonide-19-noratisan-3-one]
  pKd: 4.51
